Data published in ChEMBL document CHEMBL3885881, “DrugMatrix”.

Species on record: Rattus norvegicus
Assay: DrugMatrix - Regimen: Daily Repeat
Assay type: toxicity, organism-based, Sprague-Dawley
Set-up: regimen Daily Repeat, gender Male, age 6-8 weeks
Details: in vivo, po, 1 mg/kg, route oral GAVAGE, dose level Low, vehicle 100 % WATER; for ABSOLUTE BASOPHIL / ABSOLUTE EOSINOPHIL / ABSOLUTE LYMPHOCYTE / ABSOLUTE MONOCYTE / ABSOLUTE SEGMENTED NEUTROPHIL / BASOPHIL / EOSINOPHIL / ERYTHROCYTE COUNT / HEMATOCRIT / HEMOGLOBIN / LEUKOCYTE COUNT / LYMPHOCYTE / MEAN CORPUSCULAR HEMOGLOBIN / MEAN CORPUSCULAR HEMOGLOBIN CONCENTRATION / MEAN CORPUSCULAR VOLUME / MONOCYTE / NEUTROPHIL / NUCLEATED RED BLOOD CELLS / PLATELET COUNT: tissue Blood; for ALANINE AMINOTRANSFERASE / ALBUMIN / ALKALINE PHOSPHATASE / ASPARTATE AMINOTRANSFERASE / BLOOD UREA NITROGEN / CARBON DIOXIDE / CHLORIDE / CHOLESTEROL / CREATINE PHOSPHOKINASE / CREATININE / GLUCOSE / LACTATE DEHYDROGENASE / LIPASE / PHOSPHORUS / POTASSIUM / SODIUM / TOTAL BILIRUBIN / TOTAL PROTEIN / URIC ACID: tissue Plasma

SMILES: Cc1nccn1CC1CCc2c(c3ccccc3n2C)C1=O (stereo unspecified) [ONDANSETRON]
- ABSOLUTE BASOPHIL (72 h, time 3 day): 0 CELLS/uL
- ABSOLUTE EOSINOPHIL (72 h, time 3 day): 0 CELLS/uL
- ABSOLUTE LYMPHOCYTE (72 h, time 3 day): 12419.33 CELLS/uL
- ABSOLUTE MONOCYTE (72 h, time 3 day): 325.33 CELLS/uL
- ABSOLUTE SEGMENTED NEUTROPHIL (72 h, time 3 day): 1155.33 CELLS/uL
- BASOPHIL (72 h, time 3 day): 0%
- EOSINOPHIL (72 h, time 3 day): 0%
- ERYTHROCYTE COUNT (72 h, time 3 day): 5.53 x10E6/uL
- HEMATOCRIT (72 h, time 3 day): 34.87%
- HEMOGLOBIN (72 h, time 3 day): 13.27 G/DL
- LEUKOCYTE COUNT (72 h, time 3 day): 13.9 x10E3/uL
- LYMPHOCYTE (72 h, time 3 day): 89.33%
- MEAN CORPUSCULAR HEMOGLOBIN (72 h, time 3 day): 24 pg
- MEAN CORPUSCULAR HEMOGLOBIN CONCENTRATION (72 h, time 3 day): 38.07 G/DL
- MEAN CORPUSCULAR VOLUME (72 h, time 3 day): 63.03 fL
- MONOCYTE (72 h, time 3 day): 2.33%
- NEUTROPHIL (72 h, time 3 day): 8.33%
- NUCLEATED RED BLOOD CELLS (72 h, time 3 day): 0 /100WBC
- PLATELET COUNT (72 h, time 3 day): 1205.67 x10E3/uL
- ALANINE AMINOTRANSFERASE (72 h, time 3 day): 50.33 u/L
- ALBUMIN (72 h, time 3 day): 4.1 G/DL
- ALKALINE PHOSPHATASE (72 h, time 3 day): 392.33 u/L
- ASPARTATE AMINOTRANSFERASE (72 h, time 3 day): 92 u/L
- BLOOD UREA NITROGEN (72 h, time 3 day): 15.67 mg/dL
- CARBON DIOXIDE (72 h, time 3 day): 24.33 mmol/L
- CHLORIDE (72 h, time 3 day): 104 MEQ/L
- CHOLESTEROL (72 h, time 3 day): 74.33 mg/dL
- CREATINE PHOSPHOKINASE (72 h, time 3 day): 345 u/L
- CREATININE (72 h, time 3 day): 0.17 mg/dL
- GLUCOSE (72 h, time 3 day): 165.33 mg/dL
- LACTATE DEHYDROGENASE (72 h, time 3 day): 421 u/L
- LIPASE (72 h, time 3 day): 9.67 u/L
- PHOSPHORUS (72 h, time 3 day): 14.47 mg/dL
- POTASSIUM (72 h, time 3 day): 6.65 MEQ/L
- SODIUM (72 h, time 3 day): 147.47 MEQ/L
- TOTAL BILIRUBIN (72 h, time 3 day): 0.17 mg/dL
- TOTAL PROTEIN (72 h, time 3 day): 5.77 G/DL
- URIC ACID (72 h, time 3 day): 1.8 mg/dL
- ABSOLUTE BASOPHIL (120 h, time 5 day): 0 CELLS/uL
- ABSOLUTE EOSINOPHIL (120 h, time 5 day): 0 CELLS/uL
- ABSOLUTE LYMPHOCYTE (120 h, time 5 day): 15703.33 CELLS/uL
- ABSOLUTE MONOCYTE (120 h, time 5 day): 57.67 CELLS/uL
- ABSOLUTE SEGMENTED NEUTROPHIL (120 h, time 5 day): 1439 CELLS/uL
- BASOPHIL (120 h, time 5 day): 0%
- EOSINOPHIL (120 h, time 5 day): 0%
- ERYTHROCYTE COUNT (120 h, time 5 day): 5.66 x10E6/uL
- HEMATOCRIT (120 h, time 5 day): 36.67%
- HEMOGLOBIN (120 h, time 5 day): 14.17 G/DL
- LEUKOCYTE COUNT (120 h, time 5 day): 17.2 x10E3/uL
- LYMPHOCYTE (120 h, time 5 day): 91.33%
- MEAN CORPUSCULAR HEMOGLOBIN (120 h, time 5 day): 25.07 pg
- MEAN CORPUSCULAR HEMOGLOBIN CONCENTRATION (120 h, time 5 day): 38.6 G/DL
- MEAN CORPUSCULAR VOLUME (120 h, time 5 day): 64.9 fL
- MONOCYTE (120 h, time 5 day): 0.33%
- NEUTROPHIL (120 h, time 5 day): 8.33%
- NUCLEATED RED BLOOD CELLS (120 h, time 5 day): 0 /100WBC
- PLATELET COUNT (120 h, time 5 day): 1456 x10E3/uL
- ALANINE AMINOTRANSFERASE (120 h, time 5 day): 55 u/L
- ALBUMIN (120 h, time 5 day): 4.43 G/DL
- ALKALINE PHOSPHATASE (120 h, time 5 day): 362 u/L
- ASPARTATE AMINOTRANSFERASE (120 h, time 5 day): 77.33 u/L
- BLOOD UREA NITROGEN (120 h, time 5 day): 17 mg/dL
- CARBON DIOXIDE (120 h, time 5 day): 29 mmol/L
- CHLORIDE (120 h, time 5 day): 100.33 MEQ/L
- CHOLESTEROL (120 h, time 5 day): 72 mg/dL
- CREATINE PHOSPHOKINASE (120 h, time 5 day): 162.67 u/L
- CREATININE (120 h, time 5 day): 0.18 mg/dL
- GLUCOSE (120 h, time 5 day): 160.33 mg/dL
- LACTATE DEHYDROGENASE (120 h, time 5 day): 160.67 u/L
- LIPASE (120 h, time 5 day): 10.33 u/L
- PHOSPHORUS (120 h, time 5 day): 14.4 mg/dL
- POTASSIUM (120 h, time 5 day): 6.83 MEQ/L
- SODIUM (120 h, time 5 day): 146.07 MEQ/L
- TOTAL BILIRUBIN (120 h, time 5 day): 0.2 mg/dL
- TOTAL PROTEIN (120 h, time 5 day): 6.17 G/DL
- URIC ACID (120 h, time 5 day): 1.7 mg/dL
